Measured values as given in US11780845B2 (Relay Therapeutics, Inc., priority 2019, dated 2023).

Assays:
SNU-16 = assay: Cell SNU-16 assay; assay type: cell-based; details: Homo sapiens, SNU-16, SNU-16 cells
FGFR2 = FGFR2 (Homo sapiens (Human), UniProt P21802); assay: Biochemical FGFR2 Caliper assay
FGFR2, sequence (P21802 22-821): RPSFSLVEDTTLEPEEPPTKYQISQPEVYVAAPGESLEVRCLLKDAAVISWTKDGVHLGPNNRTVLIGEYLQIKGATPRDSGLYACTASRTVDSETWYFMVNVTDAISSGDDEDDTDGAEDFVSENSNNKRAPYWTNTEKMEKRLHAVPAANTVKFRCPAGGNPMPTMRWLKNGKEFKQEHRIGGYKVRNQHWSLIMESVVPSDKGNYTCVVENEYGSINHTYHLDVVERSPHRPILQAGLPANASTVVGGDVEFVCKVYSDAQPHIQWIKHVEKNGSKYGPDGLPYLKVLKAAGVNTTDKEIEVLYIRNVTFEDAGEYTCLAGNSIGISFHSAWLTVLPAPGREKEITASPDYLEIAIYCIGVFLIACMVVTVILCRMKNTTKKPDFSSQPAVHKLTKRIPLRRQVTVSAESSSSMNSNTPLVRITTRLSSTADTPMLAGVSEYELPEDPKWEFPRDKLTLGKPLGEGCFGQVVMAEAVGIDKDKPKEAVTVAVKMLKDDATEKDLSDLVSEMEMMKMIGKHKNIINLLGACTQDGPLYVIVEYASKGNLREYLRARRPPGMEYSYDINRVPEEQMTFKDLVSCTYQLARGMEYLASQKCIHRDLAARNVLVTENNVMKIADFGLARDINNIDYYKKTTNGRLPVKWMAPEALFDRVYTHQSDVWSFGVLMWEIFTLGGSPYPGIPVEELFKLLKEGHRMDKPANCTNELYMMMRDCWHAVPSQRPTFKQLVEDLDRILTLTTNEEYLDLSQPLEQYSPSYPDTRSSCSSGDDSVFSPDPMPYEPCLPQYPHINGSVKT

| SMILES | IC50 (SNU-16) | IC50 (FGFR2) |
| --- | --- | --- |
| C#Cc1cc(C)c(-c2c(C3=CC[C@H](C(=O)N4CCC[C@H]4COC)CC3)c3c(N)ncnc3n2C)cn1 (single isomer, unassigned) [Example 1205] | 250 to 1000 nM | 250 to 1000 nM |
| C#Cc1ccc(-c2c(C3=CC[C@H](C(=O)N4CCCC4)CC3)c3cncnc3n2C)c(C)n1 (single isomer, unassigned) [Example 1207] | 1000 to 100000 nM | 1000 to 100000 nM |
| C#Cc1ccc(-c2c(C3=CC[C@@H](C(=O)N4CCCC4)CC3)c3cncnc3n2C)c(C)n1 (single isomer, unassigned) [Example 1208] | 250 to 1000 nM | 1000 to 100000 nM |
| C#Cc1ccc(-c2c(C3=CC[C@@H](C(=O)N4CCC[C@H]4COC)CC3)c3c(N)ncnc3n2C)c(C)n1 (single isomer, unassigned) [Example 1211] | 100 to 250 nM | < 100 nM |
| C#Cc1cc(C)c(-c2c(C3=CC[C@@H](C(=O)N4CCC[C@H]4COC)CC3)c3c(N)ncnc3n2C)cn1 (single isomer, unassigned) [Example 1212] | 100 to 250 nM | < 100 nM |
| C#Cc1cc(C)c(-c2c(C3=CC[C@H](C(=O)N4CCCC45COC5)CC3)c3c(N)ncnc3n2C)cn1 (single isomer, unassigned) [Example 1238] | 100 to 250 nM | 250 to 1000 nM |
| C#Cc1cc(C)c(-c2c(C3=CC[C@H](C(=O)N4CCCC4=O)CC3)c3c(N)ncnc3n2C)cn1 (single isomer, unassigned) [Example 1240] | 100 to 250 nM | 100 to 250 nM |
| C#Cc1ncc(-c2c(C3=CC[C@@H](C(=O)N4CCCC4)CC3)c3c(N)ncnc3n2C)c(C)c1F (single isomer, unassigned) [Example 1329] | 100 to 250 nM | 250 to 1000 nM |
| C=C(C)C(=O)Nc1ccc(-c2c(C3=CC[C@@]4(CC3)Cc3ccc(C)nc3C4=O)c3c(N)ncnc3n2C)cc1 (single isomer, unassigned) [Example 1366] | 1000 to 100000 nM | 1000 to 100000 nM |
| C=C(C)C(=O)Nc1cc(C)c(-c2c(C3=CC[C@@H](C(=O)N4CCCC4)CC3)c3c(N)ncnc3n2C)c(C)c1 (single isomer, unassigned) [Example 1484] | 1000 to 100000 nM | 1000 to 100000 nM |
| C=C(C)C(=O)Nc1cc(C)c(-c2c(C3=CC[C@H](C(=O)N4CCCC4)CC3)c3c(N)ncnc3n2C)c(C)c1 (single isomer, unassigned) [Example 1486] | 1000 to 100000 nM | 1000 to 100000 nM |
| C=CC(=O)N1CCC(c2c(-c3ccc(N4CCCC4=O)nc3)c3c(N)ncnc3n2C)C1 (centres unmarked) [Example 798] | 1000 to 100000 nM | 250 to 1000 nM |
| C=CC(=O)N1CCC(c2c(-c3ccc(CC4CCCC4)cc3)c3c(N)ncnc3n2C)C1 (centres unmarked) [Example 799] | 250 to 1000 nM | 250 to 1000 nM |
| C=CC(=O)N1CCC(c2c(-c3ccc(N4CCCC4)c(C(F)(F)F)c3)c3c(N)ncnc3n2C)C1 (centres unmarked) [Example 800] | ≤ 100 nM | < 100 nM |
| C=C(C)C(=O)Nc1ccc(-c2sc3ncnc(N)c3c2-c2ccc(Oc3cccc(C)n3)cc2)cc1 [Example 801] | ≤ 100 nM | < 100 nM |
| C=C(C)C(=O)Nc1ccc(-c2oc3ncnc(N)c3c2-c2ccc(Oc3cccc(C)n3)cc2)cc1 [Example 802] | 1000 to 100000 nM | 1000 to 100000 nM |

| SMILES | IC50 (SNU-16) | IC50 (FGFR2) |
| --- | --- | --- |
| C=CC(=O)N1CCC(c2c(-c3ccc(N4CCNC4=O)cc3)c3c(N)ncnc3n2C)C1 (centres unmarked) [Example 803] | 1000 to 100000 nM | 1000 to 100000 nM |
| C=CC(=O)N1CCC(c2c(-c3ccc(OC4CC4)nc3)c3c(N)ncnc3n2C)C1 (centres unmarked) [Example 804] | 1000 to 100000 nM | 100 to 250 nM |
| C=CC(=O)N1CCC(c2c(-c3ccc(N4CCN(C)C4=O)cc3)c3c(N)ncnc3n2C)C1 (centres unmarked) [Example 805] | 250 to 1000 nM | 1000 to 100000 nM |
| C=CC(=O)N1C[C@H](c2c(-c3ccc(Oc4cccc(C)n4)cc3)c3c(N)ncnc3n2C)[C@@H](O)C1 [Example 806] | 100 to 250 nM | < 100 nM |
| C=CC(=O)N1C[C@@H](O)[C@@H](c2c(-c3ccc(Oc4cccc(C)n4)cc3)c3c(N)ncnc3n2C)C1 [Example 807] | 250 to 1000 nM | 250 to 1000 nM |
| C=C(C)C(=O)Nc1ccc(-c2c(-c3ccc(Oc4cccc(C)n4)cc3)c3c(N)ncnn3c2CO)cc1 [Example 808] | 100 to 250 nM | 100 to 250 nM |
| C=CC(=O)NC1CCC(c2c(-c3ccc(Oc4cccc(C)n4)cc3)c3c(N)ncnc3n2C)C1 (centres unmarked) [Example 810] | ≤ 100 nM | < 100 nM |
| C=CC(=O)N1CCC(c2c(-c3ccc(-n4cc(C)cn4)cc3)c3c(N)ncnc3n2C)C1 (centres unmarked) [Example 811] | 250 to 1000 nM | 100 to 250 nM |
| C=CC(=O)N1C2COCC1C(c1c(-c3ccc(Oc4cccc(C)n4)cc3)c3c(N)ncnc3n1C)C2 (centres unmarked) [Example 812] | ≤ 100 nM | < 100 nM |
| C=CC(=O)N1CC(F)C(c2c(-c3ccc(Oc4cccc(C)n4)cc3)c3c(N)ncnc3n2C)C1 (centres unmarked) [Example 813] | 250 to 1000 nM | 250 to 1000 nM |
| C=CC(=O)N1CC(CO)C(c2c(-c3ccc(Oc4cccc(C)n4)cc3)c3c(N)ncnc3n2C)C1 (centres unmarked) [Example 814] | ≤ 100 nM | < 100 nM |
| C=C(C)C(=O)Nc1ccc(-c2[nH]c3ncnc(N)c3c2-c2ccc(Oc3ncc(F)cn3)c(F)c2)cc1 [Example 815] | 1000 to 100000 nM | 250 to 1000 nM |
| C=CC(=O)N(C)C1CCC(c2c(-c3ccc(Oc4cccc(C)n4)cc3)c3c(N)ncnc3n2C)C1 (centres unmarked) [Example 816] | 100 to 250 nM | 250 to 1000 nM |
| C=CC(=O)N1CCC(c2c(-c3cnn(-c4ccccc4C)c3)c3c(N)ncnc3n2C)C1 (centres unmarked) [Example 817] | 100 to 250 nM | 100 to 250 nM |
| C=C(C)C(=O)Nc1ccc(-c2[nH]c3ncnc(N)c3c2-c2ccc(S(=O)(=O)C3CCCC3)cc2)cc1 [Example 818] | 250 to 1000 nM | 250 to 1000 nM |
| C=CC(=O)N1CC(c2c(-c3ccc(Oc4cccc(C)n4)cc3)c3c(N)ncnc3n2C)C[C@@H]1CO (some centres unmarked) [Example 819] | 250 to 1000 nM | 250 to 1000 nM |

More lines, now with the values ahead:

| IC50 (SNU-16) | IC50 (FGFR2) | SMILES |
| --- | --- | --- |
| ≤ 100 nM | < 100 nM | C=C1CCN(c2ccc(-c3c(C4=CC[C@@H](C(=O)N5CCCC5)CC4)c4c(C)ncnc4n3C)c(Cl)c2)C1=O (single isomer, unassigned) [Example 1140] |
| ≤ 100 nM | < 100 nM | C=C1CCN(c2ccc(-c3c(C4=CC[C@H](C(=O)N5CCCC5)CC4)c4c(C)ncnc4n3C)c(Cl)c2)C1=O (single isomer, unassigned) [Example 1141] |
| ≤ 100 nM | < 100 nM | C#Cc1cc(C)c(-c2c(C3=CC[C@@H](C(=O)N4CCCC4)CC3)c3c(N)ncnc3n2C)cn1 (single isomer, unassigned) [Example 1142] |
| ≤ 100 nM | < 100 nM | C#Cc1ncc(-c2c(C3=CC[C@@H](C(=O)N4CCCC4)CC3)c3c(C)ncnc3n2C)c(C)n1 (single isomer, unassigned) [Example 1166] |
| ≤ 100 nM | < 100 nM | C#Cc1ncc(-c2c(C3=CC[C@H](C(=O)N4CCCC4)CC3)c3c(C)ncnc3n2C)c(C)n1 (single isomer, unassigned) [Example 1169] |
| ≤ 100 nM | < 100 nM | C#Cc1cc(C)c(-c2c(C3=CC[C@@H](C(=O)N4CCCC4)CC3)c3c(C)ncnc3n2C)cn1 (single isomer, unassigned) [Example 1199] |
| ≤ 100 nM | < 100 nM | C#Cc1cc(C)c(-c2c(C3=CC[C@H](C(=O)N4CCCC4)CC3)c3c(C)ncnc3n2C)cn1 (single isomer, unassigned) [Example 1201] |
| ≤ 100 nM | < 100 nM | C#Cc1ccc(-c2c(C3=CC[C@H](C(=O)N4CCC[C@H]4COC)CC3)c3c(N)ncnc3n2C)c(C)n1 (single isomer, unassigned) [Example 1204] |
| ≤ 100 nM | < 100 nM | C#Cc1cc(C)c(-c2c(C3=CC[C@@H](C(=O)N4CCC[C@@H]4C)CC3)c3c(N)ncnc3n2C)cn1 (single isomer, unassigned) [Example 1210] |
| ≤ 100 nM | < 100 nM | C#Cc1cc(C)c(-c2c(C3=CC[C@@H](C(=O)N4CCC[C@H]4C)CC3)c3c(N)ncnc3n2C)cn1 (single isomer, unassigned) [Example 1219] |
| ≤ 100 nM | < 100 nM | C#Cc1ccc(-c2c(C3=CC[C@@H](C(=O)N4CCC[C@@H]4C#C)CC3)c3c(N)ncnc3n2C)c(C)n1 (single isomer, unassigned) [Example 1229] |
| ≤ 100 nM | < 100 nM | C#Cc1ccc(-c2c(C3=CC[C@@H](C(=O)N4CCC[C@H]4C#C)CC3)c3c(N)ncnc3n2C)c(C)n1 (single isomer, unassigned) [Example 1230] |
| ≤ 100 nM | < 100 nM | C#Cc1cc(C)c(-c2c(C3=CC[C@@H](C(=O)N4CCC[C@H]4CO)CC3)c3c(N)ncnc3n2C)cn1 (single isomer, unassigned) [Example 1231] |
| ≤ 100 nM | < 100 nM | C#Cc1ccc(-c2c(C3=CC[C@@H](C(=O)N4CCC[C@H]4C#N)CC3)c3c(N)ncnc3n2C)c(C)n1 (single isomer, unassigned) [Example 1235] |
| ≤ 100 nM | < 100 nM | C#Cc1cc(C)c(-c2c(C3=CC[C@@H](C(=O)N4CCCC45COC5)CC3)c3c(N)ncnc3n2C)cn1 (single isomer, unassigned) [Example 1239] |
| ≤ 100 nM | < 100 nM | C#Cc1cc(C)c(-c2c(C3=CC[C@@H](C(=O)N4CCCC4=O)CC3)c3c(N)ncnc3n2C)cn1 (single isomer, unassigned) [Example 1241] |
| ≤ 100 nM | < 100 nM | C#Cc1ncc(-c2c(C3=CC[C@H](C(=O)N4CCCC4)CC3)c3c(N)ncnc3n2C)c(C)c1F (single isomer, unassigned) [Example 1330] |
| ≤ 100 nM | < 100 nM | C#Cc1ncc(-c2c(-c3ccc(C(=O)N4CCC[C@H]4C#C)cc3)c3c(N)ncnc3n2C)c(C)c1F (single isomer, unassigned) [Example 1331] |
| ≤ 100 nM | < 100 nM | C#Cc1ncc(-c2c(-c3ccc(C(=O)N4CCC[C@@H]4C#C)cc3)c3c(N)ncnc3n2C)c(C)c1F (single isomer, unassigned) [Example 1332] |
| ≤ 100 nM | < 100 nM | C=C(C)C(=O)Nc1ccc(-c2c(C3=CC[C@]4(CC3)Cc3ccc(C)nc3C4=O)c3c(N)ncnc3n2C)cc1 (single isomer, unassigned) [Example 1367] |
